# Measurements: PubChem BioAssay (NCI)
#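 Growth conditions: 96-well plates. Treatment: test compound, 48 hours, 5 concentrations. Analysis: linear interpolation between bracketing concentrations; unreached endpoints set to highest concentration. TGI denotes the concentration required for complete inhibition of growth.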
# Experiments:
# Experiment in all cases: DTP human tumour cell line panel, 48 h
# HT29 colon = system: HT29 colon
# RXF 393 renal = system: RXF 393 renal
# 786-0 renal = system: 786-0 renal
# SR leukemia = system: SR leukemia
# M14 melanoma = system: M14 melanoma
# HS 578T breast = system: HS 578T breast
# SK-MEL-5 melanoma = system: SK-MEL-5 melanoma
# OVCAR-4 ovarian = system: OVCAR-4 ovarian
# HCC-2998 colon = system: HCC-2998 colon
# TK-10 renal = system: TK-10 renal
# ACHN renal = system: ACHN renal
# UACC-257 melanoma = system: UACC-257 melanoma
# MDA-MB-435 = system: MDA-MB-435
# OVCAR-3 ovarian = system: OVCAR-3 ovarian
# EKVX NSCLC = system: EKVX NSCLC
# NCI-H23 lung = system: NCI-H23 lung
# NCI-H522 lung = system: NCI-H522 lung
# RPMI-8226 leukemia = system: RPMI-8226 leukemia
# CCRF-CEM leukemia = system: CCRF-CEM leukemia
# NCI/ADR-RES ovarian = system: NCI/ADR-RES ovarian
# OVCAR-8 ovarian = system: OVCAR-8 ovarian
# NCI-H226 lung = system: NCI-H226 lung
# BT-549 breast = system: BT-549 breast
# NCI-H460 lung = system: NCI-H460 lung
# OVCAR-5 ovarian = system: OVCAR-5 ovarian
# A549 NSCLC = system: A549 NSCLC
# IGROV1 ovarian = system: IGROV1 ovarian
# SF-295 CNS = system: SF-295 CNS
# HCT-116 colon = system: HCT-116 colon
# SF-539 CNS = system: SF-539 CNS
# UO-31 renal = system: UO-31 renal
# MOLT-4 leukemia = system: MOLT-4 leukemia
# SN12C renal = system: SN12C renal
# SNB-75 CNS = system: SNB-75 CNS
# COLO 205 colon = system: COLO 205 colon
# T-47D breast = system: T-47D breast
# HOP-92 NSCLC = system: HOP-92 NSCLC
# KM12 colon = system: KM12 colon
# HOP-62 NSCLC = system: HOP-62 NSCLC
# SW-620 colon = system: SW-620 colon
# SK-MEL-2 melanoma = system: SK-MEL-2 melanoma
# SF-268 CNS = system: SF-268 CNS
# LOX IMVI melanoma = system: LOX IMVI melanoma
# A498 renal = system: A498 renal
# CAKI-1 renal = system: CAKI-1 renal
# MDA-MB-231 breast = system: MDA-MB-231 breast
# MDA-N = system: MDA-N
# UACC-62 melanoma = system: UACC-62 melanoma
# SNB-19 CNS = system: SNB-19 CNS
# SK-OV-3 ovarian = system: SK-OV-3 ovarian
# HCT-15 colon = system: HCT-15 colon
# K-562 leukemia = system: K-562 leukemia
# PC-3 prostate = system: PC-3 prostate
# MALME-3M melanoma = system: MALME-3M melanoma
# U251 CNS = system: U251 CNS
# SK-MEL-28 melanoma = system: SK-MEL-28 melanoma
# HL-60(TB) leukemia = system: HL-60(TB) leukemia
# DU-145 prostate = system: DU-145 prostate
compound,measurement,setting,value
Cc1nc2c(=O)n(C)c(=O)n(C)c2o1,TGI,HT29 colon,> 100 µM
same,TGI,RXF 393 renal,> 100 µM
same,TGI,786-0 renal,> 100 µM
same,TGI,SR leukemia,> 100 µM
same,TGI,M14 melanoma,> 100 µM
same,TGI,HS 578T breast,> 100 µM
same,TGI,SK-MEL-5 melanoma,> 100 µM
same,TGI,OVCAR-4 ovarian,> 100 µM
same,TGI,HCC-2998 colon,> 100 µM
same,TGI,TK-10 renal,> 100 µM
same,TGI,ACHN renal,> 100 µM
same,TGI,UACC-257 melanoma,> 100 µM
same,TGI,MDA-MB-435,> 100 µM
same,TGI,OVCAR-3 ovarian,> 100 µM
same,TGI,EKVX NSCLC,> 100 µM
same,TGI,NCI-H23 lung,> 100 µM
same,TGI,NCI-H522 lung,> 100 µM
same,TGI,RPMI-8226 leukemia,> 100 µM
same,TGI,CCRF-CEM leukemia,> 100 µM
same,TGI,NCI/ADR-RES ovarian,> 100 µM
same,TGI,OVCAR-8 ovarian,> 100 µM
same,TGI,NCI-H226 lung,> 100 µM
same,TGI,BT-549 breast,> 100 µM
same,TGI,NCI-H460 lung,> 100 µM
same,TGI,OVCAR-5 ovarian,> 100 µM
same,TGI,A549 NSCLC,> 100 µM
same,TGI,IGROV1 ovarian,> 100 µM
same,TGI,SF-295 CNS,> 100 µM
same,TGI,HCT-116 colon,> 100 µM
same,TGI,SF-539 CNS,> 100 µM
same,TGI,UO-31 renal,> 100 µM
same,TGI,MOLT-4 leukemia,> 100 µM
same,TGI,SN12C renal,> 100 µM
same,TGI,SNB-75 CNS,> 100 µM
same,TGI,COLO 205 colon,> 100 µM
same,TGI,T-47D breast,> 100 µM
same,TGI,HOP-92 NSCLC,> 100 µM
same,TGI,KM12 colon,> 100 µM
same,TGI,HOP-62 NSCLC,> 100 µM
same,TGI,SW-620 colon,> 100 µM
same,TGI,SK-MEL-2 melanoma,> 100 µM
same,TGI,SF-268 CNS,> 100 µM
same,TGI,LOX IMVI melanoma,> 100 µM
same,TGI,A498 renal,> 100 µM
same,TGI,CAKI-1 renal,> 100 µM
same,TGI,MDA-MB-231 breast,> 100 µM
same,TGI,MDA-N,> 100 µM
same,TGI,UACC-62 melanoma,> 100 µM
same,TGI,SNB-19 CNS,> 100 µM
same,TGI,SK-OV-3 ovarian,> 100 µM
same,TGI,HCT-15 colon,> 100 µM
same,TGI,K-562 leukemia,> 100 µM
same,TGI,PC-3 prostate,> 100 µM
same,TGI,MALME-3M melanoma,> 100 µM
same,TGI,U251 CNS,> 100 µM
COc1c(-c2nc3nc(N4CCN(C)CC4)ccc3[nH]2)cc(OC)c2c1nc(CO)n2C,TGI,HT29 colon,> 100 µM
same,TGI,RXF 393 renal,> 100 µM
same,TGI,786-0 renal,> 100 µM
same,TGI,M14 melanoma,> 100 µM
same,TGI,HS 578T breast,> 100 µM
same,TGI,SK-MEL-28 melanoma,> 100 µM
same,TGI,OVCAR-4 ovarian,> 100 µM
same,TGI,HCC-2998 colon,> 100 µM
same,TGI,ACHN renal,> 100 µM
same,TGI,UACC-257 melanoma,> 100 µM
same,TGI,MDA-MB-435,> 100 µM
same,TGI,OVCAR-3 ovarian,> 100 µM
same,TGI,EKVX NSCLC,> 100 µM
same,TGI,NCI-H23 lung,> 100 µM
same,TGI,NCI-H522 lung,> 100 µM
same,TGI,RPMI-8226 leukemia,> 100 µM
same,TGI,CCRF-CEM leukemia,> 100 µM
same,TGI,NCI/ADR-RES ovarian,> 100 µM
same,TGI,OVCAR-8 ovarian,> 100 µM
same,TGI,HL-60(TB) leukemia,> 100 µM
same,TGI,NCI-H226 lung,> 100 µM
same,TGI,BT-549 breast,> 100 µM
same,TGI,NCI-H460 lung,> 100 µM
same,TGI,OVCAR-5 ovarian,> 100 µM
same,TGI,A549 NSCLC,> 100 µM
same,TGI,IGROV1 ovarian,> 100 µM
same,TGI,SF-295 CNS,> 100 µM
same,TGI,HCT-116 colon,> 100 µM
same,TGI,SF-539 CNS,> 100 µM
same,TGI,UO-31 renal,> 100 µM
same,TGI,MOLT-4 leukemia,> 100 µM
same,TGI,SN12C renal,> 100 µM
same,TGI,SNB-75 CNS,> 100 µM
same,TGI,COLO 205 colon,> 100 µM
same,TGI,T-47D breast,> 100 µM
same,TGI,HOP-92 NSCLC,> 100 µM
same,TGI,KM12 colon,> 100 µM
same,TGI,HOP-62 NSCLC,> 100 µM
same,TGI,SW-620 colon,> 100 µM
same,TGI,SK-MEL-2 melanoma,> 100 µM
same,TGI,SF-268 CNS,> 100 µM
same,TGI,LOX IMVI melanoma,> 100 µM
same,TGI,CAKI-1 renal,> 100 µM
same,TGI,MDA-MB-231 breast,> 100 µM
same,TGI,MDA-N,> 100 µM
same,TGI,UACC-62 melanoma,> 100 µM
same,TGI,SNB-19 CNS,> 100 µM
same,TGI,SK-OV-3 ovarian,> 100 µM
same,TGI,HCT-15 colon,> 100 µM
same,TGI,K-562 leukemia,> 100 µM
same,TGI,DU-145 prostate,> 100 µM
same,TGI,PC-3 prostate,> 100 µM
same,TGI,MALME-3M melanoma,> 100 µM
same,TGI,U251 CNS,> 100 µM
Fc1cc(-c2cc(-c3ccccc3)n[nH]2)c(Cl)cc1Cl,TGI,HT29 colon,> 100 µM
same,TGI,RXF 393 renal,> 100 µM
same,TGI,786-0 renal,> 100 µM
same,TGI,SR leukemia,> 100 µM
same,TGI,M14 melanoma,> 100 µM
same,TGI,HS 578T breast,> 100 µM
same,TGI,SK-MEL-5 melanoma,> 100 µM
same,TGI,SK-MEL-28 melanoma,> 100 µM
same,TGI,OVCAR-4 ovarian,> 100 µM
same,TGI,TK-10 renal,> 100 µM
same,TGI,ACHN renal,> 100 µM
same,TGI,UACC-257 melanoma,> 100 µM
same,TGI,MDA-MB-435,> 100 µM
same,TGI,OVCAR-3 ovarian,> 100 µM
same,TGI,EKVX NSCLC,> 100 µM
same,TGI,NCI-H23 lung,> 100 µM
same,TGI,NCI-H522 lung,> 100 µM
same,TGI,RPMI-8226 leukemia,> 100 µM
same,TGI,CCRF-CEM leukemia,> 100 µM
same,TGI,NCI/ADR-RES ovarian,> 100 µM
same,TGI,OVCAR-8 ovarian,> 100 µM
same,TGI,HL-60(TB) leukemia,> 100 µM
same,TGI,NCI-H226 lung,> 100 µM
same,TGI,BT-549 breast,> 100 µM
same,TGI,NCI-H460 lung,> 100 µM
same,TGI,OVCAR-5 ovarian,> 100 µM
same,TGI,A549 NSCLC,> 100 µM
same,TGI,IGROV1 ovarian,> 100 µM
same,TGI,SF-295 CNS,> 100 µM
same,TGI,HCT-116 colon,> 100 µM
same,TGI,SF-539 CNS,60.7 µM
same,TGI,UO-31 renal,> 100 µM
same,TGI,MOLT-4 leukemia,57.6 µM
same,TGI,SN12C renal,> 100 µM
same,TGI,SNB-75 CNS,> 100 µM
same,TGI,COLO 205 colon,> 100 µM
same,TGI,T-47D breast,> 100 µM
same,TGI,HOP-92 NSCLC,> 100 µM
same,TGI,KM12 colon,> 100 µM
same,TGI,HOP-62 NSCLC,> 100 µM
same,TGI,SW-620 colon,> 100 µM
same,TGI,SK-MEL-2 melanoma,> 100 µM
same,TGI,SF-268 CNS,> 100 µM
same,TGI,LOX IMVI melanoma,> 100 µM
same,TGI,CAKI-1 renal,> 100 µM
same,TGI,MDA-MB-231 breast,> 100 µM
same,TGI,MDA-N,> 100 µM
same,TGI,SNB-19 CNS,> 100 µM
same,TGI,SK-OV-3 ovarian,> 100 µM
same,TGI,HCT-15 colon,> 100 µM
same,TGI,K-562 leukemia,23.2 µM
same,TGI,DU-145 prostate,> 100 µM
same,TGI,PC-3 prostate,> 100 µM
same,TGI,MALME-3M melanoma,> 100 µM
same,TGI,U251 CNS,> 100 µM
